Data published in US10641776B2, “Methods for measuring binding and cellular engagement of ligands with target proteins” (EUROFINS DISCOVERX CORPORATION, priority 2015, dated 2020).

Columns and labels:
c-Myc expression = settings: Ciceri et al., Nat Chem Biol. 2014; read-out: Published cell potency for reducing c-Myc expression: IC50; cited from earlier work
BRD4(1) bromodomain = BRD4(1) bromodomain (Homo sapiens, UniProt O60885); settings: HEK293 cells, n=2
Description: 2. […] 3. […] 4. Count cells. 5. […] 6. […] 7. […] 8. […] 9.

BRD4(1) = BRD4(1) (Homo sapiens, UniProt O60885); settings: 0-100 micromolar; 1 hour at room temperature; 45° C. for 30s
Experimental: To carry out the assay, a fusion protein [BRD4(1)-ED], which also contains an NFκB DNA binding domain at the N-terminus, was constructed with BRD4(1) and a ProLabel™ enzyme donor (ED) fragment. […] The incubation was for 1 hour at room temperature. The samples were then heated to 45° C. for 30s. EA was subsequently added into the samples (along with luminescent substrate for beta-galactosidase) and complementation was measured by measuring luminescence.
To carry out the assays, two separate samples were prepared wherein one sample comprises BRD4(1)(fusion) and no inhibitor whereas another sample comprises BRD4(1)(fusion) and an inhibitor. […] Following incubation, samples were exposed to increased temperatures (25° C., 45° C., 50° C. and 55° C. respectively). The samples were then centrifuged to separate the precipitate.
To carry out the experiment, a fusion protein was constructed comprising NFκB-BRD4(1)-ED. […] The samples were then exposed to several temperatures (25° C., 45° C., 50° C. and 55° C. respectively).

MTH1 [1] = target: T1, MTH1 (Homo sapiens, UniProt P36639); settings: read-out: Published MTH1 potency: Cellular IC50; cited from earlier work
[2] = target: MTH1 hydrolase catalytic domain (Homo sapiens, UniProt P36639); assay: In-cell pulse thermal denaturation EFC assay, MTH1 hydrolase in HEK293 cells; format: cell-based; settings: 3 hours with inhibitor at 37° C.; for EC50: preliminary protocol
MTH1 [3] = target: T1, MTH1; settings: read-out: Published MTH1 potency: In vitro EC50; cited from earlier work
H3K9me2 = settings: Vedadi et al., Nature Chemical Biology 2011; read-out: Published cell potency for reducing H3K9me2: IC50; cited from earlier work
G9a catalytic domain = target: T2, G9a catalytic domain (Homo sapiens, UniProt Q96KQ7); assay: In-cell pulse thermal denaturation EFC assay, G9a methyltransferase in HEK293 cells; format: cell-based; settings: 3 hour incubation at 37° C.; single 3 minute denaturation step at 48° C.
T2 sequence (Q96KQ7 1-1210): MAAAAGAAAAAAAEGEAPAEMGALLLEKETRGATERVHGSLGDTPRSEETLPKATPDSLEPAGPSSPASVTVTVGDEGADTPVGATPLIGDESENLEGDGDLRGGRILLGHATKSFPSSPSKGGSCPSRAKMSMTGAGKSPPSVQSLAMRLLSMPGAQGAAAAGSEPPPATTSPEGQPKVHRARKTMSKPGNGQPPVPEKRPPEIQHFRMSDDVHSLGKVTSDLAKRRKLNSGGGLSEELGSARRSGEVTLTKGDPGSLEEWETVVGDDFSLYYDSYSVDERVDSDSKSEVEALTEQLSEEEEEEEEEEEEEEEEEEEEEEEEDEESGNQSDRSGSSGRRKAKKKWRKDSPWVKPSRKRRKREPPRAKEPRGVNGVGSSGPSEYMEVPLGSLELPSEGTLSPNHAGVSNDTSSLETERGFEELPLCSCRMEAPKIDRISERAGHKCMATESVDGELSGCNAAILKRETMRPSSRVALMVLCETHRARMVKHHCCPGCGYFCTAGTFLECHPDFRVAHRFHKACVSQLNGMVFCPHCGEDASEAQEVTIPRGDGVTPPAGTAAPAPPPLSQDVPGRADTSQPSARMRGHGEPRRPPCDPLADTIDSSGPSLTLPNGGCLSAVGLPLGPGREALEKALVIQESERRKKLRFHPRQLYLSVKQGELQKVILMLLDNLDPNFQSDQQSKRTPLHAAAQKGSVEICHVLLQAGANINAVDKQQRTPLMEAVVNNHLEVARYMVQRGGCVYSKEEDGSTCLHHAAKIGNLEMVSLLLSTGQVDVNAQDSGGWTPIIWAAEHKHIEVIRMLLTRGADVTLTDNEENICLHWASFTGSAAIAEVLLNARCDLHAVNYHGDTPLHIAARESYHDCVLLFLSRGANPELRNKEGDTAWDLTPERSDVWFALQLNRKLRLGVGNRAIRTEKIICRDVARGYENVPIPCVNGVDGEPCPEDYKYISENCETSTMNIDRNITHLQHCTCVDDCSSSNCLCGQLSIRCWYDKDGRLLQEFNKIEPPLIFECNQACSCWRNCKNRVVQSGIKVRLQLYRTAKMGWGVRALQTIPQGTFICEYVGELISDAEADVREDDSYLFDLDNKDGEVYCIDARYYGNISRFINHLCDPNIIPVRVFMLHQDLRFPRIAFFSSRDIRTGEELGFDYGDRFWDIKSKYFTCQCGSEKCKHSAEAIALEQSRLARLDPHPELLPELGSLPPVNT
Experimental: The G9a catalytic domain is expressed with a C-terminal PL tag. A 3 hour incubation with inhibitor at 37° C. is followed by a single 3 minute denaturation step at 48° C.

[4] = target: T3, G9a protein methyltransferase (Homo sapiens, UniProt Q96KQ7); assay: Cell-free single-step denaturation EFC binding assay, ED-tagged G9a; settings: single denaturation step of 3 minutes at 50° C.; signal increase from about 10^2 nM through 10^4 nM
T3 sequence (Q96KQ7 1-1210): T2 sequence (Q96KQ7 1-1210)
Experimental: (§1) Data were fitted with the Hill Equation and EC50s were calculated.
This proof of concept G9a study was performed using a single denaturation step of 3 minutes at 50° C.

ABL1 protein kinase = target: T4, ABL1 protein kinase (Homo sapiens, UniProt P00519); format: binding; settings: seven inhibitors; 30 cycles of 7 seconds at 42° C. / 60 seconds at 25° C.
T4 construct: made in house; host or cells: cell extract
T4 sequence (P00519 whole entry): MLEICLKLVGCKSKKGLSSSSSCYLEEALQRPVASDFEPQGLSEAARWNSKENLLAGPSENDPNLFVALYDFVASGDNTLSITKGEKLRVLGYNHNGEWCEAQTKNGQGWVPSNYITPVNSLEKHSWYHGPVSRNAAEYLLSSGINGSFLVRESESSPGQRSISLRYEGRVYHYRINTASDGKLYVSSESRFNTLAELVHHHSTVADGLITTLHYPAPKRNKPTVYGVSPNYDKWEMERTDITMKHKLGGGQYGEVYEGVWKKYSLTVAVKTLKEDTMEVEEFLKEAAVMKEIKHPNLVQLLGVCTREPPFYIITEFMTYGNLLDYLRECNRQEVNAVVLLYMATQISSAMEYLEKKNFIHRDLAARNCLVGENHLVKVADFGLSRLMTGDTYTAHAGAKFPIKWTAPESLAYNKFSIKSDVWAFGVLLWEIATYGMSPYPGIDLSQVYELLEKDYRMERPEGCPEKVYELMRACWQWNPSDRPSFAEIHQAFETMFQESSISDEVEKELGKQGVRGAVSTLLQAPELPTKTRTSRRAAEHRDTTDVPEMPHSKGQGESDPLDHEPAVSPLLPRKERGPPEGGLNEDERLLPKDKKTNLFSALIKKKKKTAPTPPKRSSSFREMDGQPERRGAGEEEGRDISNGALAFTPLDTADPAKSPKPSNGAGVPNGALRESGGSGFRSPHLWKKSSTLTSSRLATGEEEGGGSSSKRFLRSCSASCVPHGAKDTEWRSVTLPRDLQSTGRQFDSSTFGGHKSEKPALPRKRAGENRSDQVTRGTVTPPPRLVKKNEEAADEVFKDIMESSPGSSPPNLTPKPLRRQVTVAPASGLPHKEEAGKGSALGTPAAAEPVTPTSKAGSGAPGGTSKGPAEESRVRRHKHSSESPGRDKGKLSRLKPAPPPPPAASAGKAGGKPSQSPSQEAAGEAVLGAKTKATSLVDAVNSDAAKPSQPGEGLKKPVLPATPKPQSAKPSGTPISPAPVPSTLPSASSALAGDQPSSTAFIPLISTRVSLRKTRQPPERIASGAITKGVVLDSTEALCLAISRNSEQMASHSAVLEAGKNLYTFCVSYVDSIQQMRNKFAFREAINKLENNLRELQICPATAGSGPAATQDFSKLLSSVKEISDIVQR
Experimental: as §1
EC50 dose response curves for the seven inhibitors shown on the graph (inhibitor name labels and corresponding curves are in the same left to right order) were measured against ED-tagged ABL1.

For `Cc1sc2c(c1C)C(c1ccc(Cl)cc1)=N[C@@H](CC(=O)OC(C)(C)C)c1nnc(C)n1-2` [JQ1, (6S)-4-(4-Chlorophenyl)-2,3,9-trimethyl-6H-thieno[3,2-f][1,2,4]triazolo[4,3-a][1,4]diazepine-6-acetic acid, 1,1-dimethylethyl ester], the IC50 (c-Myc expression) is given as about 100 nM, the “Assay Window” value (BRD4(1) bromodomain) is given as 3.5 +/− 0.14 and the “Rescue of BRD4(1) fusion protein from heat denaturation, dose response” value (BRD4(1)) is given as “rescue the fusion protein from denaturation in a dose-dependent manner”.
For `COc1ccc2nc3c(c(C)nn3C)c(NCCOCCO)c2c1` [SCH 51344], the IC50 (MTH1 [1]) is given as under 20000 nM, the “Assay Window” value ([2]; denaturation 45° C./1.5 min.) is given as 1.9 and the EC50 ([2]; denaturation 45° C./1.5 min.) is given as 370 nM. For the same compound, the “Assay Window” value ([2]; denaturation 48° C./3.0 min.) was 9.7, the EC50 ([2]; denaturation 48° C./3.0 min.) was 4600 nM and the EC50 (MTH1 [3]) was 50 nM.
In the case of `COc1cc2c(NC3CCN(C(C)C)CC3)nc(C3CCCCC3)nc2cc1OCCCN1CCCC1` [UNC0538, 2-Cyclohexyl-6-methoxy-N-[1-(1-methylethyl)-4-piperidinyl]-7-[3-(1-pyrrolidinyl)propoxy]-4-quinazolinamine], the IC50 (H3K9me2) is given as about 81 nM, the “Assay Window” value (G9a catalytic domain) is given as 5.0 and the “Protection against denaturation of G9a, dose response” value [4] is given as “increases in a dose-dependent manner”.
In the case of `CC(C)[C@H](CO)Nc1nc(Nc2ccc(C(=O)O)c(Cl)c2)c2ncn(C(C)C)c2n1` [purvalanol B], the “Affinity rank order for ABL1 from dose response curves” value (ABL1 protein kinase) is reported as “lowest affinity”.
